Reference: ChEMBL document CHEMBL3259671, “From virtual to clinical: The discovery of PGN-1531, a novel antagonist of the prostanoid EP4 receptor” (Bioorg Med Chem Lett, 2014)
Converted amounts (≈) assume the structure as drawn.

Experiments:
[1] = Solubility of the compound in 0.1 M phosphate buffer/[…] KCl at pH 7.4 after 24 hrs; type: physicochemical
[2] = Intrinsic clearance in human hepatocytes; type: ADME, cell-based, Hepatocyte; conditions: read-out: CLH
[3] = Bioavailability in rat; type: ADME, organism-based; conditions: in vivo
[4] = Permeability across human Caco2 cells; type: ADME, cell-based; conditions: Caco-2, read-out: permeability
[5] = Half life in po dosed rat; type: ADME, organism-based; conditions: in vivo
[6] = Intrinsic clearance in rat hepatocytes; type: ADME, cell-based, Hepatocyte; conditions: read-out: CLH

`Cc1ccccc1S(=O)(=O)NC(=O)c1cc(CNc2ccc(-c3ccccc3)cc2)c(C)o1` showed a solubility at 24 h [1] of 20 µg/mL (≈ 43.4 µM).
Compound `Cc1ccccc1S(=O)(=O)NC(=O)c1cc(CNc2ccc(-c3ccc(OC(F)F)cc3)cc2)c(C)o1` has a solubility at 24 h [1] of 20 µg/mL (≈ 38 µM).
Compound `COc1ccc(-c2ccc(OCc3cc(C(=O)NS(=O)(=O)c4ccc(O)cc4)oc3C)cc2)cc1` has a solubility at 24 h [1] of 20 µg/mL (≈ 40.5 µM).
With `Cc1noc(C)c1S(=O)(=O)NC(=O)c1cc(COc2ccc(-c3ccc(OC(F)F)cc3)cc2)c(C)o1` the solubility at 24 h [1] was under 0.6 µg/mL.
Work on `COc1ccc(-c2ccc(OCc3cc(C(=O)NS(=O)(=O)N(C)C)oc3C)cc2)cc1` yielded a solubility at 24 h [1] of 10 µg/mL (≈ 22.5 µM).
Work on `COc1ccc(-c2ccc(OCc3cc(C(=O)NS(=O)(=O)c4ccccc4)oc3C)cc2)c(C)c1` yielded a solubility at 24 h [1] of 20 µg/mL (≈ 40.7 µM).
In the case of `COc1ccc(-c2ccc(OCc3cc(C(=O)NS(=O)(=O)c4c(C)noc4C)oc3C)cc2)nc1`, the solubility at 24 h [1] is reported as 90 µg/mL (≈ 181 µM).
In the case of `COc1ccccc1-c1ccc(OCc2cc(C(=O)NS(=O)(=O)c3ccccc3)oc2C)cc1`, the solubility at 24 h [1] is reported as 8 µg/mL (≈ 16.8 µM).
In the case of `COc1ccc(-c2ccc(OCc3cc(C(=O)[N-]S(=O)(=O)c4ccccc4C)oc3C)cc2)nc1.[Na+]` [BGC-20-1531], the CLint scaled [2] is reported as 6.5 mL/min/kg, the bioavailability [3] is reported as 84% and the Papp [4] is reported as 14.5 ×10⁻⁶ cm/s. It also gave a half-life [5] of 2.3 h and a CLint scaled [6] of 2.7 mL/min/kg.
With `COc1ccc(-c2ccc(OCc3cc(C(=O)NS(=O)(=O)CCCN4CCOCC4)oc3C)cc2)cc1` the solubility at 24 h [1] was 20 µg/mL (≈ 37.8 µM).
`COc1ccc(-c2ccc(OCc3cc(C(=O)NS(=O)(=O)c4c(C)noc4C)oc3C)cc2)cc1` gave a solubility at 24 h [1] of 0.2 µg/mL (≈ 0.403 µM).
`COc1ccc(-c2ccc(OCc3cc(C(=O)NS(=O)(=O)c4c(C)noc4C)oc3C)cc2)c(C)c1` gave a solubility at 24 h [1] of 200 µg/mL (≈ 392 µM).
Compound `COc1ccc(-c2ccc(OCc3cc(C(=O)NS(=O)(=O)c4ccc(CN)cc4)oc3C)cc2)cc1` has a solubility at 24 h [1] of under 0.6 µg/mL.
With `COc1ccc(-c2ccc(OCc3cc(C(=O)NS(=O)(=O)c4ccccc4C)oc3C)cc2)nc1` [BGC-20-1531 FREE BASE] the solubility at 24 h [1] was 10 µg/mL (≈ 20.3 µM).
`Cc1oc(C(=O)NS(=O)(=O)c2ccccc2)cc1CNc1ccc(-c2ccccc2)cc1` gave a solubility at 24 h [1] of 300 µg/mL (≈ 672 µM).
`Cc1oc(C(=O)NS(=O)(=O)c2ccccc2)cc1COc1ccc(-c2ccc(OC(F)F)cc2)cc1` gave a solubility at 24 h [1] of under 0.6 µg/mL.
`COc1ccc(-c2ccc(OCc3cc(C(=O)NS(=O)(=O)c4ccccc4)oc3C)cc2)cc1` showed a solubility at 24 h [1] of 11 µg/mL (≈ 23 µM).
`CCCS(=O)(=O)NC(=O)c1cc(COc2ccc(-c3ccc(OC)cc3)cc2)c(C)o1` showed a solubility at 24 h [1] of 7 µg/mL (≈ 15.8 µM).
In the case of `COc1ccc(-c2ccc(OCc3cc(C(=O)NS(=O)(=O)c4ccc(C)cn4)oc3C)cc2)cc1`, the solubility at 24 h [1] is reported as 5 µg/mL (≈ 10.2 µM).
In the case of `COc1ccc(-c2ccc(OCc3cc(C(=O)NS(=O)(=O)c4ccccc4)oc3C)cc2)nc1`, the solubility at 24 h [1] is reported as 30 µg/mL (≈ 62.7 µM).
`Cc1oc(C(=O)NS(=O)(=O)c2ccccc2)cc1COc1ccc(-c2ccccc2)cc1` gave a solubility at 24 h [1] of 2 µg/mL (≈ 4.47 µM).
